{
  "source": "paper PMC3260189",
  "about": "“The Location and Nature of General Anesthetic Binding Sites on the Active Conformation of Firefly Luciferase; A Time Resolved Photolabeling Study” (PLoS ONE, 2012)",
  "key": {"[1]": {"target": "T1, American firefly luciferase (Photinus pyralis, UniProt P08659)", "T1 construct": "recombinant luciferase", "T1 sequence (P08659 whole entry)": "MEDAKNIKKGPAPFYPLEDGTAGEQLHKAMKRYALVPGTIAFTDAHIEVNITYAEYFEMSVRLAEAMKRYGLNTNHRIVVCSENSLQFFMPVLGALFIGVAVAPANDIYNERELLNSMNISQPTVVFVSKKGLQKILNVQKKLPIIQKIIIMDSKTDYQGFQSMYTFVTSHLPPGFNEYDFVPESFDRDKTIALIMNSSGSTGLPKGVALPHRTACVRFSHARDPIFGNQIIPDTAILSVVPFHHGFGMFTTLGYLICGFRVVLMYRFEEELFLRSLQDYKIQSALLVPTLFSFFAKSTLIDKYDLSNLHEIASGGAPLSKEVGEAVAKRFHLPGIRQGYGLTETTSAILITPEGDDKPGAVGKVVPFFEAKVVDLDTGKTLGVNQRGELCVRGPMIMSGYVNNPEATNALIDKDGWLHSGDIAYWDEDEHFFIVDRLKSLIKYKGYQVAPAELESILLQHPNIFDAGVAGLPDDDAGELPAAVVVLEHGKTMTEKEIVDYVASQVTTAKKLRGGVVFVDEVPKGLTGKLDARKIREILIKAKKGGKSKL", "experiment": "equilibrium photolabeling with LC-MSMS", "assay_type": "binding"}, "[2]": {"target": "T1, American firefly luciferase", "experiment": "stopped-flow inhibition of initial light output", "assay_type": "biochemical"}, "[3]": {"target": "T1, American firefly luciferase", "experiment": "stopped-flow inhibition of initial ATP-induced light output; photolabeling with LC-MSMS also done", "assay_type": "biochemical"}, "[4]": {"target": "T2, Japanese firefly luciferase (Nipponoluciola cruciata, UniProt P13129)", "T2 construct": "recombinant luciferase", "T2 sequence (P13129 1-548)": "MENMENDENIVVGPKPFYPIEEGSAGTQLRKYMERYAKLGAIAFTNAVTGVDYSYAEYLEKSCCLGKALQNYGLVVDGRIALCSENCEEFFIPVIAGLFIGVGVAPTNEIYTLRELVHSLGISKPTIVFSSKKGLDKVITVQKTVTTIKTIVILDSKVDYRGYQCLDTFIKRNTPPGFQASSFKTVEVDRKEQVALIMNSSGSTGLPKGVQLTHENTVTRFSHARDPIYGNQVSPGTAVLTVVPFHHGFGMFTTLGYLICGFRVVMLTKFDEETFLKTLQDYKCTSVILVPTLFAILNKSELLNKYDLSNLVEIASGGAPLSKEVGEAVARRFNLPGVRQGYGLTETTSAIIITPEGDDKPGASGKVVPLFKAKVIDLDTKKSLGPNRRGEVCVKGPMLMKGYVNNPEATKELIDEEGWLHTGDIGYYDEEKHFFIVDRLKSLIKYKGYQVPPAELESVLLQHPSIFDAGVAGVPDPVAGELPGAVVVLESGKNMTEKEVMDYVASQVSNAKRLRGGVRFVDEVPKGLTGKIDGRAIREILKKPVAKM", "experiment": "[3H] photoincorporation and time-resolved photolabeling with LC-MSMS", "assay_type": "binding"}},
  "data": [
    {"smiles": "CC1(CCCCCCO)N=N1", "note": "[7-azioctanol]", "values": [
      {"measurement": "equilibrium photolabeling with LC-MSMS", "setting": "[1]", "value": "photolabeled the American firefly luciferase at equilibrium with the azialkanols, and found the labeling pattern to be identical"}
    ]},
    {"smiles": "CCCCCCCCO", "note": "[1-octanol]", "values": [
      {"measurement": "IC50", "setting": "[2]", "value": "~ 225 µM"}
    ]},
    {"smiles": "CCCCCC1(CCO)N=N1", "note": "[3-azioctanol, 3-(2-hydroxyethyl)-3-n-pentyldiazirine]", "values": [
      {"measurement": "IC50", "setting": "[3]", "value": "200 ± 46", "unit": "µM"},
      {"measurement": "Kd", "setting": "[4]", "value": "> 1", "unit": "mM"}
    ]}
  ]
}
